Where “and” joins values, the source holds several entries; their conditions need not be identical. Equal entries are not always repeated. Where two headings read alike, the source gives them in different places.
Legend:
[1] = system: Spodoptera littoralis (Egyptian Cotton Leaf Worm); assay: Spodoptera littoralis systemic test, lettuce grown on treated agar, infested with eggs; assay type: in vivo; details: 144 h, test rate 12.5 ppm, assessed 6 days after infestation, in comparison to untreated samples, read-out: effect in at least one of the three categories (mortality, anti-feedancy, or growth inhibition)
Text: Example B1: Spodoptera littoralis (Egyptian Cotton Leaf Worm)
Test compounds were applied by pipette from 10,000 ppm DMSO stock solutions into 24-well plates and mixed with agar. Lettuce seeds were placed on the agar and the multi well plate was closed by another plate which contains also agar. After 7 days the roots have absorbed the compound and the lettuce has grown into the lid plate. The lettuce leafs were now cut off into the lid plate. Spodoptera eggs were pipetted through a plastic stencil on a humid gel blotting paper and the plate closed with it. The samples were assessed for mortality, anti-feedant effect and growth inhibition in comparison to untreated samples 6 days after infestation.
The following compounds gave an effect of at least 80% in at least one of the three categories (mortality, anti-feedancy, or growth inhibition) at a test rate of 12.5 ppm: […]

[2] = system: Diabrotica balteata (Corn Root Worm); assay: Diabrotica balteata, treated artificial diet, L2 larvae; assay type: in vivo; details: 120 h, read-out: effect in at least one of the two categories (mortality or growth inhibition)
Protocol: Example B4: Diabrotica balteata (Corn Root Worm)
24-well microtiter plates with artificial diet were treated with aqueous test solutions prepared from 10,000 ppm DMSO stock solutions by pipetting. After drying, the plates were infested with L2 larvae (6 to 10 per well). The samples were assessed for mortality and growth inhibition in comparison to untreated samples 5 days after infestation.
The following compounds gave an effect of at least 80% in at least one of the two categories (mortality or growth inhibition) at an application rate of 200 ppm: […]

[3] = system: Plutella xylostella (Diamond Back Moth); assay: Plutella xylostella, treated artificial diet, L2 larvae; assay type: in vivo; details: 120 h, application rate 200 ppm, 5 days after infestation
Protocol: Example B3: Plutella xylostella (Diamond Back Moth)
24-well microtiter plates with artificial diet were treated with aqueous test solutions prepared from 10,000 ppm DMSO stock solutions by pipetting. After drying, the plates were infested with L2 larvae (10 to 15 per well). The samples were assessed for mortality 5 days after infestation.

[4] = system: Spodoptera littoralis (Egyptian Cotton Leaf Worm); assay: Spodoptera littoralis, sprayed cotton leaf discs, L1 larvae; assay type: in vivo; details: foliar, 72 h, read-out: mortality (control)
Protocol: Example B2: Spodoptera littoralis (Egyptian Cotton Leaf Worm)
Cotton leaf discs were placed on agar in 24-well microtiter plates and sprayed with aqueous test solutions prepared from 10,000 ppm DMSO stock solutions. After drying the leaf discs were infested with five L1 larvae. The samples were assessed for mortality 3 days after infestation.

[5] = system: Myzus persicae (Green Peach Aphid); assay: Myzus persicae, sprayed sunflower leaf discs, mixed-age population; assay type: in vivo; details: foliar, 144 h, application rate 200 ppm, 6 days after infestation
Protocol: Example B5: Myzus persicae (Green Peach Aphid)
Sunflower leaf discs were placed on agar in a 24-well microtiter plate and sprayed with aqueous test solutions prepared from 10,000 ppm DMSO stock solutions. After drying, the leaf discs were infested with an aphid population of mixed ages. The samples were assessed for mortality 6 days after infestation.

[6] = system: Tetranychus urticae (Two-Spotted Spider Mite); assay: Tetranychus urticae, sprayed bean leaf discs, mixed-age mite population; assay type: in vivo; details: foliar, 192 h, read-out: mortality on mixed population (mobile stages)
Protocol: Example B11: Tetranychus urticae (Two-Spotted Spider Mite)
Bean leaf discs on agar in 24-well microtiter plates were sprayed with aqueous test solutions prepared from 10,000 ppm DMSO stock solutions. After drying the leaf discs were infested with a mite population of mixed ages. The samples were assessed for mortality on mixed population (mobile stages) 8 days after infestation.

[7] = system: Bemisia tabaci (Cotton White Fly); assay: Bemisia tabaci, sprayed cotton leaf discs, adult white flies; assay type: in vivo; details: foliar, 144 h, application rate 200 ppm, 6 days after incubation
Protocol: Example B10: Bemisia tabaci (Cotton White Fly)
Cotton leaf discs were placed on agar in 24-well microtiter plates and sprayed with aqueous test solutions prepared from 10,000 ppm DMSO stock solutions. After drying the leaf discs were infested with adult white flies. The samples were checked for mortality 6 days after incubation.

[8] = system: Myzus persicae (Green Peach Aphid); assay: Myzus persicae, sucrose solution feeding through Parafilm; assay type: in vivo; details: 120 h, test rate 12 ppm, 5 days after infestation
Protocol: Example B7: Myzus persicae (Green Peach Aphid)
Test compounds from 10,000 ppm DMSO stock solutions were applied by pipette into 24-well microtiter plates and mixed with sucrose solution. The plates were closed with a stretched Parafilm. A plastic stencil with 24 holes was placed onto the plate and infested pea seedlings were placed directly on the Parafilm. The infested plate was closed with a gel blotting paper and another plastic stencil and then turned upside down. The samples were assessed for mortality 5 days after infestation.

[9] = system: Myzus persicae (Green Peach Aphid); assay: Myzus persicae systemic test, roots of infested pea seedlings in test solution; assay type: in vivo; details: 144 h, test rate 24 ppm, 6 days after placing seedlings in test solutions
Protocol: Example B6: Myzus persicae (Green Peach Aphid)
Roots of pea seedlings infested with an aphid population of mixed ages were placed directly in the aqueous test solutions prepared from 10,000 DMSO stock solutions. The samples were assessed for mortality 6 days after placing seedlings in test solutions.

[10] = application rate 200 ppm, 5 days after infestation, in comparison to untreated samples
[11] = application rate 200 ppm, 3 days after infestation

## CCSc1cc(C(F)(F)F)cnc1-c1nc2cc(Cl)nnc2n1C
other
  melting point: 156 to 158 °C

## CCS(=O)(=O)c1cc(C(F)(F)F)cnc1-c1cn2cnc(C(F)(F)F)cc2n1 [Compound V16.02, 2-[3-ethylsulfonyl-5-(trifluoromethyl)-2-pyridyl]-7-(trifluoromethyl)imidazo[1,2-c]pyrimidine]
[1]
  percent effect (mortality, anti-feedancy or growth inhibition) at 12.5 ppm: ≥ 80%
[2]; [10]
  percent effect (mortality or growth inhibition) at 200 ppm: ≥ 80%
[3]
  mortality at 200 ppm: ≥ 80%
[4]; [11]
  mortality at 200 ppm: ≥ 80%
[5]
  mortality at 200 ppm: ≥ 80%
[6]; application rate 200 ppm, 8 days after infestation
  mortality at 200 ppm: ≥ 80%

## CCS(=O)(=O)c1scnc1-c1nc2cc(C(F)(F)F)ncc2n1C [Compound V13.05, 5-ethylsulfonyl-4-[3-methyl-6-(trifluoromethyl)imidazo[4,5-c]pyridin-2-yl]thiazole]
[2]; [10]
  percent effect (mortality or growth inhibition) at 200 ppm: ≥ 80%
[3]
  mortality at 200 ppm: ≥ 80%
[7]
  mortality at 200 ppm: ≥ 80%

## CCS(=O)(=O)c1nsnc1-c1nc2cc(C(F)(F)F)cnc2n1C
other
  melting point: 144 to 146 °C

## CCS(=O)(=O)c1cc(C(F)(F)F)cnc1-c1nc2cc(C(F)(F)F)ncn2c1C [Compound V16.01, 2-[3-ethylsulfonyl-5-(trifluoromethyl)-2-pyridyl]-3-methyl-7-(trifluoromethyl)imidazo[1,2-c]pyrimidine]
[1]
  percent effect (mortality, anti-feedancy or growth inhibition) at 12.5 ppm: ≥ 80%
[3]
  mortality at 200 ppm: ≥ 80%
[4]; [11]
  mortality at 200 ppm: ≥ 80%
[5]
  mortality at 200 ppm: ≥ 80%
[8]
  mortality at 12 ppm: ≥ 80%

## CCS(=O)(=O)c1cc(C(F)(F)F)cnc1-c1nc2cc(Br)ncc2n1C [Compound V12.20, 6-bromo-2-[3-ethylsulfonyl-5-(trifluoromethyl)-2-pyridyl]-3-methyl-imidazo[4,5-c]pyridine]
[9]
  mortality at 24 ppm: ≥ 80%
[2]; [10]
  percent effect (mortality or growth inhibition) at 200 ppm: ≥ 80%
[7]
  mortality at 200 ppm: ≥ 80%
[4]; [11]
  mortality at 200 ppm: ≥ 80%
[5]
  mortality at 200 ppm: ≥ 80%
[8]
  mortality at 12 ppm: ≥ 80%

## CCS(=O)(=O)c1nc(C(F)(F)F)sc1-c1nc2cc(C(F)(F)F)ncc2n1C [Compound V14.05, 4-Ethylsulfonyl-5-[3-methyl-6-(trifluoromethyl)imidazo[4,5-c]pyridin-2-yl]-2-(trifluoromethyl)thiazole]
[9]
  mortality at 24 ppm: ≥ 80%
[5]
  mortality at 200 ppm: ≥ 80%
[8]
  mortality at 12 ppm: ≥ 80%

## CCSc1cc(C(F)(F)F)nnc1-c1nc2cc(C(F)(F)F)cnc2n1C
other
  melting point: 149 to 150 °C and 149 to 156 °C

## CCS(=O)(=O)c1nc(C(F)(F)F)sc1-c1cn2ccc(C(F)(F)F)cc2n1
other
  melting point: 126 to 128 °C

## CCS(=O)(=O)c1cc(C(F)(F)F)cnc1-c1nc2cc(Cl)nnc2n1C [Compound V12.17, 3-chloro-6-[3-ethylsulfonyl-5-(trifluoromethyl)-2-pyridyl]-7-methyl-imidazo[4,5-c]pyridazine]
[9]
  mortality at 24 ppm: ≥ 80%
[5]
  mortality at 200 ppm: ≥ 80%
[8]
  mortality at 12 ppm: ≥ 80%

## CCS(=O)(=O)c1nc(C(F)(F)F)ccc1-c1nc2cc3nc(C(F)(F)F)n(C)c3nc2n1C
other
  melting point: 197 to 199 °C

## Cn1c(-c2ncc(C(F)(F)F)cc2S(C)(=O)=O)nc2cc(C(F)(F)F)ncc21 [Compound V12.18, 3-methyl-2-[3-methylsulfonyl-5-(trifluoromethyl)-2-pyridyl]-6-(trifluoromethyl)imidazo[4,5-c]pyridine]
[2]
  percent effect (mortality or growth inhibition) at 200 ppm: ≥ 80%
[4]
  mortality at 200 ppm: ≥ 80%
[6]
  mortality at 200 ppm: ≥ 80%

## CC1Cc2c(C(F)(F)F)ccc(-c3nc4cc(C(F)(F)F)cnc4n3C)c2S1(=O)=O (stereo not shown)
other
  melting point: 206 °C

## CCS(=O)(=O)c1nc(C(F)(F)F)ccc1-c1cn2ccc(C(F)(F)F)cc2n1
other
  melting point: 188 to 190 °C

## CCS(=O)(=O)c1cc(OC(F)F)cnc1-c1nc2cc(C(F)(F)F)ncc2n1C
other
  melting point: 146 to 148 °C

## CCS(=O)(=O)c1cc(C(F)(F)F)nnc1-c1nc2cc(C(F)(F)F)cnc2n1C
other
  melting point: 172 to 174 °C

## CCS(=O)(=O)c1cc(C(F)(F)F)cnc1-c1nc2cc(C(F)(F)F)ncn2n1 [Compound V16.03, 2-[3-ethylsulfonyl-5-(trifluoromethyl)-2-pyridyl]-7-(trifluoromethyl) [1,2,4]triazolo[1,5-c]pyrimidine]
[9]
  mortality at 24 ppm: ≥ 80%
[2]; [10]
  percent effect (mortality or growth inhibition) at 200 ppm: ≥ 80%
[3]
  mortality at 200 ppm: ≥ 80%
[5]
  mortality at 200 ppm: ≥ 80%

## CCS(=O)(=O)c1cc(C(F)(F)F)cnc1-c1nc2nc(C(F)(F)F)cnc2n1C
other
  melting point: 162 to 165 °C
